The first test concerns MIA PaCa-2 cells. Briefly: Cell viability assay (MTT) in MIA PaCa-2 cells. Conditions: Homo sapiens, antiproliferative activity, 72 h. Format: cell-based. As to the method: MIA PaCa-2 cells (CRL-1420, ATCC) were maintained in DMEM media supplemented with 10% FBS, 2.5% HS, 1% GlutaMAX, 1% sodium pyruvate, 100 U/mL penicillin, and 100 μg/mL streptomycin. Cell culture media and additives were purchased from Gibco. Cells were plated in 96-well plates at |1−2.5|×10^4 cells per well in the DMEM growth media. One microliter of a 2-fold serially diluted compound solution in DMSO (Sigma) starting at 20 mM (100 μM final concentration) was added to each well. The final volume in each well was 200 μL, yielding a final DMSO concentration of 0.5%. Control wells contained 0.5% DMSO (100% viability) or 25% DMSO (background) and all reactions were done in triplicate. The plate was incubated for 72 h at 37° C. in a 5% CO2/95% air humidified atmosphere.
Measurement of cell viability was carried out using a modified method of Mosmann based on 3-(4,5-dimethylthiazol-2-yl)-2,5-diphenyltetrazolium bromide (MTT, Sigma). MTT solution was prepared fresh at 1 mg/mL in serum-free and phenol red-free RPMI 1640 media. After 200 μL of MTT solution was added to each well, the plate was incubated as described above for 3 h. The MTT solution was removed, and the formazan crystals were solubilized with 200 μL of isopropanol. The plate was read on a SpectraMax i3 spectrophotometer (Molecular Devices) at 570 nm for formazan and 650 nm for background subtraction. EC50 values were calculated by fitting the data in GraphPad Prism software. EC50 values were determined in triplicate.
The term EC50 denotes the concentration needed to bring the measured effect to its halfway point. Low readings indicate greater potency, high ones weaker potency. In the case of `Cc1nn(Cc2ccccc2)c(C)c1NC(=O)c1ccc(COc2ccccc2)cc1` [Compound A1, N-(1-Benzyl-3,5-dimethyl-1H-pyrazol-4-yl)-4-(phenoxymethyl)benzamide], the midpoint of the response, the EC50, lay at 10 µM. `CNC(=O)c1cccc(Cn2nc(C)c(NC(=O)c3ccc(COc4ccccc4[N+](=O)[O-])cc3)c2C)c1` [Compound D8a, 3-((3,5-Dimethyl-4-(4-((2-nitrophenoxy)methyl)benzamido)-1H-pyrazol-1-yl)methyl)-N-methylbenzamide] registered an EC50 of 11 µM. Molecule `CNC(=O)c1cccc(Cn2nc(C)c(NC(=O)c3ccc(COc4cccnc4)cc3)c2C)c1` [Compound G2, 3-((3,5-Dimethyl-4-(4-((pyridin-3-yloxy)methyl)benzamido)-1H-pyrazol-1-yl)methyl)-N-methylbenzamide] had a concentration for a half-maximal effect (EC50) of 24 µM.

Molecule `CNC(=O)c1cccc(C(C)n2nc(C)c(NC(=O)c3ccc(COc4ccc(C(F)(F)F)cc4C)cc3)c2C)c1` (centres unmarked) [Compound F3, 3-(1-(3,5-Dimethyl-4-(4-((2-methyl-4-(trifluoromethyl)phenoxy)methyl)benzamido)-1H-pyrazol-1-yl)ethyl)-N-methylbenzamide] showed an EC50 of 2.4 µM.

For the molecule `CNC(=O)c1cc(Cn2nc(C)c(NC(=O)c3ccc(COc4ccc(C(F)(F)F)cc4C)nc3)c2C)ccn1` [Compound E5b, 4-((3,5-Dimethyl-4-(6-((2-methyl-4-(trifluoromethyl)phenoxy)methyl)nicotinamido)-1H-pyrazol-1-yl)methyl)-N-methylpicolinamide], a half-maximal response (EC50) required 9.4 µM.

`CNC(=O)c1cccc(Cn2nc(C)c(NC(=O)c3ccc(COC4CCCCC4)cc3)c2C)c1` [Compound C7, 3-((4-(4-((Cyclohexyloxy)methyl)benzamido)-3,5-dimethyl-1H-pyrazol-1-yl)methyl)-N-methylbenzamide] gave an EC50 of 14 µM.

In turn, `CNC(=O)c1cccc(Cn2nc(C)c(NC(=O)c3ccc(CNc4ccccc4)cc3)c2C)c1` [Compound C2, 3-((3,5-Dimethyl-4-(4-((phenylamino)methyl)benzamido)-1H-pyrazol-1-yl)methyl)-N-methylbenzamide] returned an EC50 of 17 µM.

In turn, `CNC(=O)c1cccc(Cn2nc(C)c(NC(=O)c3cccc(COc4ccccc4)c3)c2C)c1` [Compound C6, N-(3,5-Dimethyl-1-(3-(methylcarbamoyl)benzyl)-1H-pyrazol-4-yl)-3-(phenoxymethyl)benzamide] gave a 50% effective concentration (EC50) of 32 µM. `CNC(=O)c1cccc(Cn2nc(C)c(NC(=O)c3ccc(COc4cccc([N+](=O)[O-])c4)cc3)c2C)c1` [Compound D8b, 3-((3,5-Dimethyl-4-(4-((3-nitrophenoxy)methyl)benzamido)-1H-pyrazol-1-yl)methyl)-N-methylbenzamide] had an EC50 of 10 µM.

Molecule `Cc1nn(Cc2cccc(C(=O)Nc3ccccc3)c2)c(C)c1NC(=O)c1ccc(COc2ccccc2)cc1` [Compound A4d, 3-((3,5-Dimethyl-4-(4-(phenoxymethyl)benzamido)-1H-pyrazol-1-yl)methyl)-N-phenylbenzamide] displayed an EC50 of 6.4 µM.

Molecule `CNC(=O)c1cccc(Cn2nc(C)c(N(C)C(=O)c3ccc(COc4ccccc4)cc3)c2C)c1` [Compound B1, N-(3,5-Dimethyl-1-(3-(methylcarbamoyl)benzyl)-1H-pyrazol-4-yl)-N-methyl-4-(phenoxymethyl)benzamide] had a half-maximal effective concentration (EC50) of 17 µM. Regarding `CNC(=O)c1cccc(Cn2nc(C)c(NC(=O)c3ccc(Oc4ccc(C(F)(F)F)cc4)cc3)c2C)c1` [Compound E6b, 3-((3,5-Dimethyl-4-(4-(4-(trifluoromethyl)phenoxy)-benzamido)-1H-pyrazol-1-yl)methyl)-N-methylbenzamide], a half-maximal effect (EC50) was put at 4.6 µM. In turn, `CNC(=O)c1cccc(Cn2nc(C)c(NC(=O)c3ccc(C(C)Oc4ccccc4)cc3)c2C)c1` (centres unmarked) [Compound F1, 3-((3,5-Dimethyl-4-(4-(1-phenoxyethyl)benzamido)-1H-pyrazol-1-yl)methyl)-N-methylbenzamide] came in with an EC50 of 22 µM. Molecule `CNC(=O)c1cccc(Cn2nc(C)c(NC(=O)c3ccc(COc4ccncc4)cc3)c2C)c1` [Compound G3, 3-((3,5-Dimethyl-4-(4-((pyridin-4-yloxy)methyl)benzamido)-1H-pyrazol-1-yl)methyl)-N-methylbenzamide] had a concentration for a half-maximal effect (EC50) of 99 µM. As for `CNC(=O)c1cc(C(C)n2nc(C)c(NC(=O)c3ccc(COc4ccc(C(F)(F)F)cc4C)cc3)c2C)ccn1` (centres unmarked) [Compound F4, 4-(1-(3,5-Dimethyl-4-(4-((2-methyl-4-(trifluoromethyl)phenoxy)methyl)benzamido)-1H-pyrazol-1-yl)ethyl)-N-methylpicolinamide], the concentration for a half-maximal effect (EC50) amounted to 4 µM. Molecule `CNC(=O)c1cccc(Cn2nc(C)c(NC(=O)c3ccc(COc4ccc([N+](=O)[O-])cc4)cc3)c2C)c1` [Compound D8c, 3-((3,5-Dimethyl-4-(4-((4-nitrophenoxy)methyl)benzamido)-1H-pyrazol-1-yl)methyl)-N-methylbenzamide] came in with a 50% effective concentration (EC50) of 9.7 µM.

For `CNC(=O)c1cccc(Cn2nc(C)c(NC(=O)c3ccc(Oc4ccccc4)cc3)c2C)c1` [Compound E6a, 3-((3,5-Dimethyl-4-(4-phenoxybenzamido)-1H-pyrazol-1-yl)methyl)-N-methylbenzamide], the EC50 is 8.4 µM. The molecule `CNC(=O)c1cccc(Cn2nc(C)c(NC(=O)c3ccc(Oc4ccc(C(F)(F)F)cc4C)cc3)c2C)c1` [Compound E6c, 3-((3,5-Dimethyl-4-(4-(2-methyl-4-(trifluoromethyl)phenoxy)benzamido)-1H-pyrazol-1-yl)methyl)-N-methylbenzamide] returned a half-maximal effective concentration (EC50) of 1.2 µM. `CNC(=O)c1cccc(C(C)n2nc(C)c(NC(=O)c3ccc(COc4ccccc4)cc3)c2C)c1` (centres unmarked) [Compound F2, 3-(1-(3,5-Dimethyl-4-(4-(phenoxymethyl)benzamido)-1H-pyrazol-1-yl)ethyl)-N-methylbenzamide] came in with an EC50 of 7.7 µM.

In the case of `CNC(=O)c1cc(Cn2nc(C)c(NC(=O)c3ccc(Oc4ccc(C(F)(F)F)cc4C)cc3)c2C)ccn1` [Compound E7b, 4-((3,5-Dimethyl-4-(4-(2-methyl-4-(trifluoromethyl)phenoxy)-benzamido)-1H-pyrazol-1-yl)methyl)-N-methylpicolinamide], the EC50 was 10 µM. Same read-out and setting: the figure for `CNC(=O)c1cc(Cn2nc(C)c(NC(=O)c3ccc(Oc4ccc(C(F)(F)F)cc4)cc3)c2C)ccn1` [Compound E7a, 4-((3,5-Dimethyl-4-(4-(4-(trifluoromethyl)phenoxy)-benzamido)-1H-pyrazol-1-yl)methyl)-N-methylpicolinamide] is 8.1 µM; for `CNC(=O)c1cccc(Cn2nc(C)c(NC(=O)c3ccc(COc4ccc(C(F)(F)F)cc4C)nc3)c2C)c1` [Compound E5a, N-(3,5-Dimethyl-1-(3-(methylcarbamoyl)benzyl)-1H-pyrazol-4-yl)-6-((2-methyl-4-(trifluoromethyl)phenoxy)methyl)nicotinamide] it is 6.7 µM; for `CNC(=O)c1cccc(Cn2nc(C)c(NC(=O)c3ccc(COc4cccc(C#N)c4)cc3)c2C)c1` [Compound D7b, 3-((4-(4-((3-Cyanophenoxy)methyl)benzamido)-3,5-dimethyl-1H-pyrazol-1-yl)methyl)-N-methylbenzamide] it is 10 µM. Still for that read-out and setting: for `CNC(=O)c1cccc(Cn2nc(C)c(NCc3ccc(COc4ccccc4)cc3)c2C)c1` [Compound B2, 3-((3,5-Dimethyl-4-((4-(phenoxymethyl)benzyl)amino)-1H-pyrazol-1-yl)methyl)-N-methylbenzamide] the value was 6.1 µM; for `CNC(=O)c1cccc(Cn2nc(C)c(NC(=O)c3ccc(COc4ccccn4)cc3)c2C)c1` [Compound G1, 3-((3,5-Dimethyl-4-(4-((pyridin-2-yloxy)methyl)benzamido)-1H-pyrazol-1-yl)methyl)-N-methylbenzamide], more than 100 µM; for `CNC(=O)c1cccc(Cn2nc(C)c(NS(=O)(=O)c3ccc(COc4ccccc4)cc3)c2C)c1` [Compound B3, 3-((3,5-Dimethyl-4-((4-(phenoxymethyl)phenyl)sulfonamido)-1H-pyrazol-1-yl)methyl)-N-methylbenzamide], 25 µM. For the molecule `CNC(=O)c1cccc(Cn2nc(C)c(NC(=O)c3ccc(COc4ccc5ccccc5c4)cc3)c2C)c1` [Compound D1, 3-((3,5-Dimethyl-4-(4-((naphthalen-2-yloxy)methyl)benzamido)-1H-pyrazol-1-yl)methyl)-N-methylbenzamide], the EC50 came out at 9.1 µM. Same read-out and setting: for `CNC(=O)c1cccc(Cn2nc(C)c(NC(=O)c3ccc(CSc4ccccc4)cc3)c2C)c1` [Compound C1, 3-((3,5-Dimethyl-4-(4-((phenylthio)methyl)benzamido)-1H-pyrazol-1-yl)methyl)-N-methylbenzamide] the value was 8.3 µM.

In the next test the test system is Panc-1 cells. Briefly: Cell viability assay (MTT) in Panc-1 cells. To be noted: Homo sapiens, antiproliferative activity, 72 h. Format: cell-based. As to the method: Panc-1 cells are maintained in RPMI 1640 (Invitrogen 11875) media supplemented with 10% FBS, 1% Penicillin/Streptomycin and 1% Glutamax-1. Cells were plated in 96-well plates at 25×10^4 cells/ml. After 24 hours, compounds were added at 9, 3× dilutions in triplicate from 100 uM final concentration in the appropriate growth media. Plates were incubated for 72 hours at 37° C. in a 5% CO2/95% air humidified atmosphere after which time the media was removed and MTT was added in RPMI phenol red free media. The MTT was removed after 3 hours and formazan crystals were solubilized with 200 μL of isopropanol. Plates were read on a Molecular Devices SpectraMax i3 spectrophotometer at 570 nm for formazan and 690 nm for background subtraction. EC50 values were calculated by fitting the data in GraphPad Prism software.
In turn, `Cc1nn(Cc2ccccc2)c(C)c1NC(=O)c1ccc(COc2ccccc2)cc1` [Compound A1, N-(1-Benzyl-3,5-dimethyl-1H-pyrazol-4-yl)-4-(phenoxymethyl)benzamide] returned an EC50 of 9 µM.

The values are drawn from US10357477B2, “Anticancer compounds” (REGENTS OF THE UNIVERSITY OF MINNESOTA, priority 2016, dated 2019).
